Test results published in US20260224538A1 (Purdue Research Foundation, priority 2023, published 2026).

Assays:
[1] = target: T1, α-syn (Homo sapiens, UniProt P37840); experiment: Transmission electron microscopy (TEM) of α-syn fibrils; format: biochemical; conditions: compound 100 μM
T1 construct: purchased rPeptide
Protocol: (§1) Transmission electron microscopy (TEM). After performing analysis with ThT fluorescence assay, TEM was utilized to detect fibril formation. A volume of 10 μL was applied to a 400-mesh Formvar-carbon-coated copper grid (Electron Microscopy Sciences, Hatfield, PA). The grids were incubated for 1 minute and washed three times with distilled water. They were carefully air-dried and incubated for 1 minute in a fresh solution of 1% uranyl acetate. Samples were air-dried and observed using a transmission microscope. Visualization of the grids was performed with TEM (JEOL 1400 Flash, Japan). Acquisition of pictures was performed with settings of accelerating voltage of 100 kV and magnification of 25 k and/or 40 k.

[2] = target: T2, tau isoform 2N4R (Homo sapiens, UniProt P10636); experiment: TEM of tau isoform 2N4R fibrils; format: biochemical; conditions: compound 100 μM, tau 10 μM, molar ratio 1:10
T2 construct: made in house; host or cells: E. coli BL21(DE3)
Protocol: as §1

[3] = test system: M17D neuroblastoma cells that express inclusion-prone αS-3K::YFP; experiment: α-Syn inclusion-forming neuroblastoma cell experiment; format: cell-based; conditions: t=96 hrs
Protocol: α-Syn (or αS) inclusion-forming neuroblastoma cell experiment. Dox-inducible neuroblastoma cells M17D-TR/αS-3K::YFP have been used previously. 96-well plates were used with a cellular density of 30,000 cells per well. Compounds were added […], and αS-3K::YFP transgene expression was induced […]. Induction was done by adding 1 μg per mL (final concentration) dox to culture media. Cells were incubated in the Incucyte Zoom 2000 platform (Essen Biosciences), and images (green, bright field) were taken continuously. Endpoint analysis of inclusion formation or growth was performed 48 hours after induction (96 hours after plating). The Incucyte processing definition ‘Inclusions’ was created as follows: Parameters, Fixed Threshold, Threshold (GCU) 50; Edge Split On, Edge Sensitivity 100; Cleanup, Hole Fill (μm^2): 10, Adjust Size (pixels): 0; Filters, Area (μm^2): max 50, Mean Intensity: min 60, Integrated Intensity: min 2000. Cell confluence was measured by the processing definition ‘Cells’: Parameters, Segmentation Adjustment 0.7; Cleanup, all parameters set to 0; Filters, Area (μm^2): min 345.00. As described previously for the evaluation of protein expression by SDS-PAGE and Western Blotting in the LiCor system, αS-specific monoclonal antibody 4B12 (Thermofisher, Waltham, MA; 1:1000) and a polyclonal antibody to GAPDH (Sigma-Aldrich, St. Louis, MO, G9545; 1:5000) were used.

[4] = target: T1, α-syn; experiment: Photo-induced cross-linking of unmodified proteins (PICUP), α-syn oligomerization; format: biochemical; conditions: for α-syn oligomer formation (PICUP): compound 50 μM, molar ratio 1:5 (protein:compound)
Protocol: Photo-induced Cross-linking of Unmodified Proteins (PICUP) Assay. To induce oligomerization by cross-linking, α-syn (from Rpeptide, LLC) and tau isoform 2N4R were diluted in 10 mM phosphate buffer (pH 7.4) to reach a final concentration of 10 μM. Different compounds were added to the protein solution at a final concentration of 50 μM, resulting in a molar ratio of 1:5. To confirm the gradual effect of the compounds on the inhibition of α-syn oligomerization, the compounds were tested at final concentrations of 3.125, 6.25, 12.5, 25, and 50 μM. The controls consisted of samples without light exposition, without Ru(bpy) or ammonium persulfate, and without compound (i.e., 0.125% DMSO). The cross-linking reaction was initiated by the addition of 2 μL of Ru(bpy) (300 μM final concentration) and 2 μL ammonium persulfate (6 mM final concentration). Samples were irradiated immediately. Light exposure was of a one-second duration for α-syn and a three-second duration for tau isoform 2N4R, with a 53 W (120 V) incandescent lamp installed in a homemade dark-box. Each tube contained a final volume of 20 μL. After irradiation, 8.3 μL of Laemmli loading buffer containing 15% β-mercaptoethanol were immediately added to the solution, followed by incubation at 95° C. for 10 minutes. The cross-linked samples were separated on a 16% SDS-PAGE gel and visualized by Coomassie blue staining.

[5] = target: T2, tau isoform 2N4R; experiment: ThT kinetics of tau isoform 2N4R fibril formation; format: biochemical
Protocol: The bacterial expression plasmid consisting of the vector pRK172 carrying a cDNA encoding the human Tau 2N4R isoform was obtained from Dr. David Eliezer (Weill Cornell Medicine, New York, NJ). For protein expression, E. coli BL21(DE3) cells were transformed with the plasmid and grown in LB media supplemented with ampicillin (100 μg/mL). Protein over-expression was induced by the addition of 1 mM IPTG for 4 hours at 37° C., and cells were pelleted by centrifugation at 6,000 g for 15 minutes at 4° C. The cells were resuspended in lysis buffer (20 mM MES, 400 mM NaCl, 0.2 mM MgCl2, 1 mM EGTA, protease inhibitor cocktail (P8340, Sigma Aldrich), 0.25 mg/mL lysozyme, and 1 μg/mL DNase 1, pH 6.8) and lysed by a French press cell disruptor at 4° C., after which the lysate was boiled for 20 minutes. Denatured proteins were pelleted by centrifugation at 30,000 g for 30 minutes at 4° C., and the supernatant was dialyzed overnight against cation exchange buffer (20 mM MES, 50 mM NaCl, 1 mM MgCl2, 1 mM EGTA, 2 mM DTT, 0.1 mM PMSF, pH 6.8). The dialysate was loaded onto a HiPrep SP HP column, and proteins were eluted with a linear gradient ranging from 50 mM to 1 M NaCl. Fractions containing tau isoform 2N4R were pooled, and the resulting protein solution was dialyzed against PBS (pH 7.4) and stored at −80° C.
Compounds with the highest anti-fibrillary activity were tested at 3.125, 6.25, 12.5, 25, 50, and 100 μM to obtain dose-response curves with prepared α-syn and 2N4R tau at 6.25 μM and 6 μM, respectively. Compounds were tested with α-syn using a previously published procedure. Concerning the tau (isoform 2N4R) kinetics of fibril formation, measurements of ThT fluorescence were performed with a solution of the protein diluted to a final concentration of 6 μM in PBS (pH 7.4) supplemented with 1.5 μM heparin, 20 μM ThT, 2.5 mM DTT, and 100 μM compound. Aliquots of the diluted protein solution (100 μL each) were pipetted into the wells of a 96-well plate, and a Teflon ball was added to each well. The plate was incubated at 37° C. with constant shaking at 1,000 rpm in a Tecan Spark plate reader. ThT fluorescence was measured every 15 minutes with excitation and emission wavelengths of 440 nm and 480 nm, and the data were plotted using GraphPad Prism.

T2 sequence (P10636 1-441 isoform P10636-8): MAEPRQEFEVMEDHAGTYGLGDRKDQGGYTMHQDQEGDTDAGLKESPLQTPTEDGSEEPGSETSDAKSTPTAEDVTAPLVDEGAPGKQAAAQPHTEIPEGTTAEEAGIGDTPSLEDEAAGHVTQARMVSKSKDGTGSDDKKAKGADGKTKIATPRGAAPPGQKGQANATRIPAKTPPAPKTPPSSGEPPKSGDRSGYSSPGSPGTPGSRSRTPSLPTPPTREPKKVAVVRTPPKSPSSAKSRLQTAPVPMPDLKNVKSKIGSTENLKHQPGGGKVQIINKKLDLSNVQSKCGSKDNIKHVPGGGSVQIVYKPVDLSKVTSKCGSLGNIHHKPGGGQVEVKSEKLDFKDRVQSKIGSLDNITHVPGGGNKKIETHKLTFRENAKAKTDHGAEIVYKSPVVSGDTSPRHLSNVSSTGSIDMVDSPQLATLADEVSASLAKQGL

- α-syn oligomer formation (PICUP) ([4]; listed as nitro-1,2-benzothiazol-3-amine): reduced the oligomer formation
- tau isoform 2N4R fibrillization (ThT), dose response ([5]; 3.125-100 μM, at 15 hours): protein fibrillization was reduced
- lag time of tau isoform 2N4R fibril formation ([5]; tau 6 μM, compound 100 μM): delayed the lag time
SMILES: Nc1nsc2ccc([N+](=O)[O-])cc12 [A, 5-nitro-1,2-benzothiazol-3-amine]
- α-syn fibrils by TEM [1]: clear effect in reducing α-syn and tau fibrillization
- tau isoform 2N4R fibrils by TEM [2]: clear effect in reducing α-syn and tau fibrillization
- cell confluence ([3]; different concentrations): without any effect on the cell confluence
- number of αS-3K::YFP inclusions ([3]; different concentrations, vs 0.1% DMSO): reduced the number of inclusions in a dose-dependent manner
- concentration from which the number of inclusions was reduced [3]: 10 µM
- α-syn oligomer formation (PICUP), dose dependence ([4]; 3.125-50 μM): reduced the oligomer formation in a dose-dependent manner
- α-syn oligomer formation (PICUP) ([4]; listed as 5-nitro-1,2-benzothiazol-3-amine): reduced α-syn and tau isoform 2N4R oligomer formation
- production of tau isoform 2N4R fibrils (ThT kinetic aggregation curves) ([5]; tau 6 μM, compound 100 μM): demonstrating the best anti-fibrillary activity
